The values below come from patent US20260158056A1, “USE OF LOW MOLECULAR WEIGHT HYALURONIC ACID FOR THE TREATMENT OF LUNG MUCOSAL INFLAMMATION” (INSTITUT NATIONAL DE LA SANTÉ ET DE LA RECHERCHE MÉDICALE, priority 2021, published 2026).

This assay deals with IL-8 secreted by F508del/F508del CF human airway epithelial cells. Description: IL-8 ELISA, CF airway epithelial cells cultured at the air-liquid interface (ALI), treatment during regeneration and differentiation. Format: cell-based. The method, then: FIG. 1: Measurement by ELISA assay of the pro-inflammatory chemokine IL-8 secreted by F508del/F508del CF human airway epithelial cells cultured at the air-liquid interface (ALI). Airway epithelial cells were seeded in bi-compartmental chambers and cultured in liquid-liquid condition until confluence was reached. At confluence, culture medium from the upper chamber was removed to create an air-liquid interface (ALI) that will favor epithelial cell differentiation. From the ALI creation, the different treatments (15-45 kDa sodium-hyaluronic acid (HA-Na 15-45 kDa) (ARD—Pomacle—France—as prepared according to WO2004050187), 15-30 kDa sodium-hyaluronic acid (HA-Na 15-30 kDa) (Sigma Aldrich) or 30-50 kDa sodium-hyaluronic acid (HA-Na 30-50 kDa) (Sigma Aldrich) were added at 1 mg/mL to the culture medium in the basal chamber. The culture medium was renewed three times a week. At ALI day 15, the culture medium was replaced by fresh medium without any treatment. After a 4 h-period, this culture medium was collected and the IL-8 content was determined by ELISA assay. n=5 different F508del/F508del CF patients. p<0.001 (***); p<0.01 (**); p<0.05 (*). ns: non-significant.
FIG. 4: Measurement by ELISA assay of the pro-inflammatory chemokine IL-8 secreted by F508del/F508del CF human airway epithelial cells cultured at the air-liquid interface (ALI). Airway epithelial cells were seeded in bi-compartmental chambers and cultured in liquid-liquid condition until confluence was reached. At confluence, culture medium from the upper chamber was removed to create an air-liquid interface (ALI) that will favor epithelial cell differentiation. From the ALI creation, the different treatments (15-45 kDa sodium-hyaluronic acid (HA-Na 15-45 kDa) (ARD—Pomacle—France—as prepared according to WO2004050187), 15-45 kDa calcium-hyaluronic acid (HA-Ca 15-45 kDa; ARD), or 15-45 kDa potassium-hyaluronic acid (HA-K 15-45 kDa; ARD) were added at 1 mg/mL to the culture medium in the basal chamber. The culture medium was renewed three times a week. At ALI day 15, the culture medium was replaced by fresh medium without any treatment. After a 4 h-period, this culture medium was collected and the IL-8 content was determined by ELISA assay. n=4 different F508del/F508del CF patients. p<0.001 (***); p<0.01 (**); p<0.05 (*). ns: Non-significant.
FIG. 7: Measurement by ELISA assay of the pro-inflammatory chemokine IL-8 secreted by F508del/F508del CF human airway epithelial cells cultured at the air-liquid interface (ALI). Airway epithelial cells were seeded in bi-compartmental chambers and cultured in liquid-liquid condition until confluence was reached. At confluence, culture medium from the upper chamber was removed to create an air-liquid interface (ALI) that will favor epithelial cell differentiation. From the ALI creation, 15-45 kDa sodium-hyaluronic acid (HA-Na 15-45 kDa) (ARD—Pomacle—France—as prepared according to WO2004050187) was added at 0.1 mg/mL, 0.5 mg/mL, 1 mg/mL and 2 mg/mL to the culture medium in the basal chamber. The culture medium was renewed three times a week. At ALI day 15, the culture medium was replaced by fresh medium without any treatment. After a 4 h-period, this culture medium was collected and the IL-8 content was determined by ELISA assay. n=3 different F508del/F508del CF patients. p<0.001 (***); p<0.01 (**); p<0.05 (*). ns: non-significant.
In general terms: ELISA stands for enzyme-linked immunosorbent assay.

Where [1] appears, read: FIG. 4, 1 mg/mL from ALI creation, ALI day 15, vs control condition, n=4 CF patients.
[2] abbreviates: FIG. 1, 1 mg/mL from ALI creation, ALI day 15, vs control condition, n=5 CF patients.

Consider “15-45 kDa calcium-hyaluronic acid [HA-Ca 15-45 kDa]”, for which the “decrease in IL-8 secretion” value under setting [1] is 59.25%.
As for “30-50 kDa sodium-hyaluronic acid [HA-Na 30-50 kDa]”, under setting [2], the “decrease in IL-8 secretion” value was 67.2%.
Take “15-45 kDa sodium-hyaluronic acid [HA-Na 15-45 kDa]”: the “decrease in IL-8 secretion” value is on record as 52% under setting [2]; 55.5% under setting [1]; “does not have anymore effect” (FIG. 7, 0.1 mg/mL, ALI day 15, n=3 CF patients); 47.3% (FIG. 7, 0.5 mg/mL, ALI day 15, n=3 CF patients); 62% (FIG. 7, 1 mg/mL, ALI day 15, n=3 CF patients); 65% (FIG. 7, 2 mg/mL, ALI day 15, n=3 CF patients).
Take “15-30 kDa sodium-hyaluronic acid [HA-Na 15-30 kDa]”: the “decrease in IL-8 secretion” value under setting [2] amounted to 57%.
